According to patent US20250145592A1 (NICO Therapeutics, Inc., priority 2022, published 2025):
Like-named read-outs stand apart in the source and are kept apart here.

Tested on: IL-1β secretion in THP-1 cells (NLRP3)
Experiment: IL-1β secretion assay in PMA-differentiated THP-1 cells stimulated with LPS and nigericin (ELISA readout)
Assay type: cell-based
Details: IL-1β ELISA
Method: Compounds as provided herein were tested in the following assay. Cell culture medium employed contained RPMI 1640 medium (89%), FBS (10%), Pen/Strep (1%), and 2-mercaptoethanol (0.05 mM). Freezing medium was made up of 90% FBS and 10% DMSO. THP-1 cells were removed from the liquid nitrogen and placed into a 37° C. water bath to thaw, until signs of ice dissipated. The cells were then added to 9 mL of warm cell culture medium and centrifuged for 5 minutes at 1000 rpm. The supernatant was discarded, and the cells were resuspended in new cell culture medium. THP-1 cells were then split and cultured in the cell culture medium, being passaged every 2-3 days with the cell density will be maintained between 5×10^5 and 1.5×10^6 viable cells/mL.
To freeze, cells were resuspended with fresh freezing medium, adjusting the cell density to 5×10^6 cells/mL. The cell suspension was partitioned into 1 mL aliquots per vial, and the vials were transferred to a −80° C. freezer. After one day at −80° C., the cell vials were transferred to liquid nitrogen freezer for storage.
PMA was dissolved in DMSO to make a stock solution at 5 mg/ml and stored in 10 μl aliquots at −20° C. for single use. PMA is added to normal growth medium. LPS was diluted with 1 mL of water solution to provide a 1 mg/mL stock solution and stored in 15 μl aliquots at −20° C. for single use. Nigericin is diluted in ice cold 100% ethanol to 5 mg/ml (6.7 mM) and stored in 75 μL aliquots at −20° C. for single use. Serum-free media contains RPMI 1640 medium (99%), Pen/Strep (1%), and 2-mercaptoethanol (0.05 mM). The two control conditions used to qualify and normalize test compound dose-response curves were as follows: High Control=25 ng/mL LPS, […], 0.5% DMSO, Low Control=25 ng/mL, LPS, 0.5% DMSO.
THP-1 cells were diluted to provide a suspension at a concentration of 1.0×10^6 cells/mL with the total volume of suspension required to enable the desired number of assay plates. The growth media was supplemented with PMA (5 ng/mL final concentration) and the cells were incubated at 37° C. under a humidified atmosphere of 5% CO2 for 40 h.
All media was carefully aspirated from each culture flask. The cells were washed carefully with 1×DPBS. The cells were then briefly digested with trypsin LE for 5 minutes at 23° C. and immediately resuspended in cell growth media. After resuspension, the cells were centrifuged at 1000 rpm for 3 minutes and the supernatant was discarded. The cells were resuspended in DPBS and once again centrifuged at 1000 rpm for 5 minutes. The supernatant was discarded and the cell pellet was resuspended in serum-free media supplemented with LPS (25 ng/mL final concentration) to enable the distribution of 30K THP-1 cells within 45 μL of media into each well of 384-well PDL-coated plates. The 384-well plates were then incubated at 37° C. under a humidified atmosphere of 5% CO2 for 2 h. Following this period, test compounds were dispensed by Tecan across the desired concentration range with all wells normalized to a final 0.5% DMSO concentration. The plates were then then incubated at 37° C. under a humidified atmosphere of 5% CO2 for 1 h. Following this period, 5 μL of the 5 mg/mL nigericin stock solution was added to each of the appropriate wells and plates were centrifuged at 1000 rpm for 30 seconds. The plates were the immediately reintroduced to the incubator at 37° C. under a humidified atmosphere of 5% CO2 for 2 h. After this time, 35 μL/well of supernatant was collected and transferred into v-bottom plate and centrifuged at 1000 rpm for 1 minute. These supernatant aliquots were analyzed using an IL-Iβ detection kit as described below. If needed, the test samples could be snap frozen and stored at −80° C. until analyzed.
To prepare each ELISA plate, capture antibody (mAb Mt175) was diluted with PBS to a final concentration of […] and then 20 µL of this solution was added to each well of the ELISA plate.
Each plate was allowed to incubate overnight at 4° C. […]

[1] = Homo sapiens, THP-1, Table 3, LPS 25 ng/mL + nigericin, read-out: Activity (IC50 class)
[2] = Homo sapiens, THP-1, Table 4, LPS 25 ng/mL + nigericin, read-out: Activity (IC50)
[3] = Table 4, LPS 25 ng/mL + nigericin, read-out: Activity (IC50)
[4] = Table 3, LPS 25 ng/mL + nigericin, read-out: Activity (IC50 class)

Row | IC50 [1] | IC50 [2] | IC50 [3] | IC50 [4] | SMILES
1 | < 1000 nM | 50 nM |  |  | N#Cc1cnc(NC(=O)Cn2nc(OC3CC4(CC4)C3)c3cc(Br)ccc3c2=O)nc1 [Example 30, 2-(6-bromo-1-oxo-4-spiro[2.3]hexan-5-yloxyphthalazin-2-yl)-N-(5-cyanopyrimidin-2-yl)acetamide]
2 | < 1000 nM | 368 nM |  |  | CC[C@@H]1CC1Oc1nn(CC(=O)Nc2ncc(F)cn2)c(=O)c2ccc(Br)cc12 (single isomer, unassigned) [Example 35, 2-[6-bromo-4-[cis-2-ethylcyclopropyl]oxy-1-oxophthalazin-2-yl]-N-(5-fluoropyrimidin-2-yl)acetamide]
3 | < 1000 nM |  | 31 nM |  | Cc1cnc(NC(=O)Cn2nc(OC3CC4(C3)CC4(F)F)c3cc(Br)ccc3c2=O)nc1 (single isomer, unassigned) [Example 21, 2-[6-bromo-4-(2,2-difluorospiro[2.3]hexan-5-yl)oxy-1-oxophthalazin-2-yl]-N-(5-methylpyrimidin-2-yl)acetamide]
4 | < 1000 nM |  | 34 nM |  | O=C(Cn1nc(OC2CC3(C2)CC3(F)F)c2cc(C3(F)CC3)ccc2c1=O)Nc1ncc(F)cn1 (single isomer, unassigned) [Example 13, 2-[4-(2,2-difluorospiro[2.3]hexan-5-yl)oxy-6-(1-fluorocyclopropyl)-1-oxophthalazin-2-yl]-N-(5-fluoropyrimidin-2-yl)acetamide]
5 |  |  | 1510 nM | 1000 to 10000 nM | O=C(Cn1nc(OC2CC2(F)F)c2cc(Br)ccc2c1=O)Nc1ncc(F)cn1 (single isomer, unassigned) [Example 18, 2-[6-bromo-4-[2,2-difluorocyclopropyl]oxy-1-oxophthalazin-2-yl]-N-(5-fluoropyrimidin-2-yl)acetamide]
6 |  |  | 397 nM | < 1000 nM | CC[C@@H]1CC1Oc1nn(CC(=O)Nc2ncc(F)cn2)c(=O)c2ccc(Br)cc12 (single isomer, unassigned) [Example 36, 2-[6-bromo-4-[cis-2-ethylcyclopropyl]oxy-1-oxophthalazin-2-yl]-N-(5-fluoropyrimidin-2-yl)acetamide]
7 | < 1000 nM | 183 nM |  |  | COc1nn(CC(=O)N[C@H]2C[C@@](C)(O)C2)c(=O)c2ccc(Br)cc12 [Example 24, 2-(6-bromo-4-methoxy-1-oxophthalazin-2-yl)-N-(cis-3-hydroxy-3-methylcyclobutyl)acetamide]
8 | < 1000 nM | 492 nM |  |  | O=C(Cn1nc(O[C@H]2C[C@@H](F)C2)c2cc(Br)ccc2c1=O)Nc1ncc(F)cn1 [Example 44, 2-[6-bromo-4-(cis-3-fluorocyclobutyl)oxy-1-oxophthalazin-2-yl]-N-(5-fluoropyrimidin-2-yl)acetamide]
9 | < 1000 nM | 66 nM |  |  | O=C(Cn1nc(OC2CC3(CC3)C2)c2c(F)c(C3CC3)ccc2c1=O)Nc1ncc(F)cn1 [Example 31, 2-(6-cyclopropyl-5-fluoro-1-oxo-4-spiro[2.3]hexan-5-yloxyphthalazin-2-yl)-N-(5-fluoropyrimidin-2-yl)acetamide]
10 | < 1000 nM | 360 nM |  |  | O=C(Cn1nc(OC2CC(C(F)(F)F)C2)c2cc(Br)ccc2c1=O)Nc1ncc(F)cn1 (stereo not shown) [Example 42, 2-[6-bromo-1-oxo-4-[3-(trifluoromethyl)cyclobutyl]oxyphthalazin-2-yl]-N-(5-fluoropyrimidin-2-yl)acetamide]
11 |  | 389 nM |  |  | O=C(Cn1nc(OC2C[C@@H]2F)c2cc(Br)ccc2c1=O)Nc1ncc(F)cn1 (stereo partly drawn) [Example 53, 2-[6-bromo-4-[2-trans-fluorocyclopropyl]oxy-1-oxophthalazin-2-yl]-N-(5-fluoropyrimidin-2-yl)acetamide]
12 | < 1000 nM | 424 nM |  |  | O=C(Cn1nc(OC2CC2)c2cc(OC(F)F)ccc2c1=O)Nc1ncc(F)cn1 [Example 37, 2-[4-cyclopropyloxy-6-(difluoromethoxy)-1-oxophthalazin-2-yl]-N-(5-fluoropyrimidin-2-yl)acetamide]
13 | < 1000 nM |  | 33 nM |  | O=C(Cn1nc(OC2CC3(C2)CC3(F)F)c2cc(Br)ccc2c1=O)Nc1nc2ccccn2n1 (single isomer, unassigned) [Example 25, 2-[6-bromo-4-(2,2-difluorospiro[2.3]hexan-5-yl)oxy-1-oxophthalazin-2-yl]-N-([1,2,4]triazolo[1,5-a]pyridin-2-yl)acetamide]
14 | < 1000 nM | 33 nM |  |  | O=C(Cn1nc(OC2CC3(CC3)C2)c2cc(Br)ccc2c1=O)Nc1ncc(F)cn1 [Example 4, 2-(6-bromo-1-oxo-4-spiro[2.3]hexan-5-yloxyphthalazin-2-yl)-N-(5-fluoropyrimidin-2-yl)acetamide]
15 | < 1000 nM |  | 84 nM |  | C[C@@H]1CC1Oc1nn(CC(=O)N[C@H]2C[C@@](C)(O)C2)c(=O)c2ccc(Br)cc12 (single isomer, unassigned) [Example 7, 2-[6-bromo-4-[trans-2-methylcyclopropyl]oxy-1-oxophthalazin-2-yl]-N-(cis-3-hydroxy-3-methylcyclobutyl)acetamide]
16 | < 1000 nM | 152 nM |  |  | O=C(Cn1nc(OC2CC2)c2cc(C3(F)CC3)ccc2c1=O)Nc1ncc(F)cn1 [Example 12, 2-[4-cyclopropyloxy-6-(1-fluorocyclopropyl)-1-oxophthalazin-2-yl]-N-(5-fluoropyrimidin-2-yl)acetamide]
17 | < 1000 nM | 568 nM |  |  | O=C(Cn1nc(OCC(F)F)c2cc(Br)ccc2c1=O)Nc1ncc(F)cn1 [Example 48, 2-[6-bromo-4-(2,2-difluoroethoxy)-1-oxophthalazin-2-yl]-N-(5-fluoropyrimidin-2-yl)acetamide]
18 | < 1000 nM |  | 554 nM |  | Cc1cnc(NC(=O)Cn2nc(OC3C[C@H]3C)c3cc(Br)ccc3c2=O)nc1 (single isomer, unassigned) [Example 9, 2-[6-bromo-4-[trans-2-methylcyclopropyl]oxy-1-oxophthalazin-2-yl]-N-(5-methylpyrimidin-2-yl)acetamide]
19 | < 1000 nM | 183 nM |  |  | COc1nn(CC(=O)Nc2ncc(F)cn2)c(=O)c2ccc(C3CC3)c(F)c12 [Example 32, 2-(6-cyclopropyl-5-fluoro-4-methoxy-1-oxophthalazin-2-yl)-N-(5-fluoropyrimidin-2-yl)acetamide]
20 |  |  | 141 nM | < 1000 nM | Cc1cnc(NC(=O)Cn2nc(OC3C[C@H]3C)c3cc(Br)ccc3c2=O)nc1 (single isomer, unassigned) [Example 10, 2-[6-bromo-4-[trans-2-methylcyclopropyl]oxy-1-oxophthalazin-2-yl]-N-(5-methylpyrimidin-2-yl)acetamide]
21 | < 1000 nM |  | 21 nM |  | O=C(Cn1nc(OC2CC3(C2)CC3(F)F)c2cc(Br)ccc2c1=O)Nc1ncc(F)cn1 (single isomer, unassigned) [Example 5, 2-[6-bromo-4-(2,2-difluorospiro[2.3]hexan-5-yl)oxy-1-oxophthalazin-2-yl]-N-(5-fluoropyrimidin-2-yl)acetamide]
22 |  |  | 3400 nM | 1000 to 10000 nM | C[C@]1(O)C[C@@H](NC(=O)Cn2nc(OC3CC4(C3)CC4(F)F)c3cc(Br)ccc3c2=O)C1 (single isomer, unassigned) [Example 20, 2-[6-bromo-4-(2,2-difluorospiro[2.3]hexan-5-yl)oxy-1-oxophthalazin-2-yl]-N-(cis-3-hydroxy-3-methylcyclobutyl)acetamide]
